Assay results taken from patent US8106055B2, “Substituted amide compounds” (Gruenenthal GmbH, priority 2007, dated 2012).

Experiments:
[1] = target: T1, serotonin (5-HT) reuptake (Rattus norvegicus, UniProt P31652); assay: Inhibition of serotonin (5HT) reuptake in synaptosomes from rat brain; type: biochemical; conditions: test concentration of 10 μM; read-out: 5-HT (inhibition of reuptake of serotonin, % inhibition)
T1 construct: synaptosomes are freshly isolated from areas of the rat brain; from tissue; host or cells: rat brain synaptosomes (P2 fraction)
How it was run: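 Compounds screened at 10 μM and reported as percent inhibition of serotonin uptake. Uptake measured in a freshly prepared P2 synaptosomal fraction from rat brain.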

[2] = target: T2, human μ opiate receptor (Homo sapiens, UniProt P35372); assay: Affinity for the human μ opiate receptor ([3H]-naloxone displacement, CHO-K1 receptor membrane preparation, SPA); type: binding; conditions: test concentration of 1 μM; read-out: μ (binding on the μ opioid receptor, % inhibition)
T2 construct: purchased PerkinElmer Life Sciences, Zaventem, Belgium RB-HOM; host or cells: CHO-K1 cells (membrane preparation)
How it was run: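 SPA, CHO-K1 hμ membranes; 1 nmol/l [3H]-naloxone; Tris-HCl 50 mmol/l + 0.06% BSA; 90 min RT; NSB with 100 μmol/l naloxone; β-counting. Readout: % inhibition of specific binding at 1 μM test compound.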

T1 sequence (P31652 whole entry): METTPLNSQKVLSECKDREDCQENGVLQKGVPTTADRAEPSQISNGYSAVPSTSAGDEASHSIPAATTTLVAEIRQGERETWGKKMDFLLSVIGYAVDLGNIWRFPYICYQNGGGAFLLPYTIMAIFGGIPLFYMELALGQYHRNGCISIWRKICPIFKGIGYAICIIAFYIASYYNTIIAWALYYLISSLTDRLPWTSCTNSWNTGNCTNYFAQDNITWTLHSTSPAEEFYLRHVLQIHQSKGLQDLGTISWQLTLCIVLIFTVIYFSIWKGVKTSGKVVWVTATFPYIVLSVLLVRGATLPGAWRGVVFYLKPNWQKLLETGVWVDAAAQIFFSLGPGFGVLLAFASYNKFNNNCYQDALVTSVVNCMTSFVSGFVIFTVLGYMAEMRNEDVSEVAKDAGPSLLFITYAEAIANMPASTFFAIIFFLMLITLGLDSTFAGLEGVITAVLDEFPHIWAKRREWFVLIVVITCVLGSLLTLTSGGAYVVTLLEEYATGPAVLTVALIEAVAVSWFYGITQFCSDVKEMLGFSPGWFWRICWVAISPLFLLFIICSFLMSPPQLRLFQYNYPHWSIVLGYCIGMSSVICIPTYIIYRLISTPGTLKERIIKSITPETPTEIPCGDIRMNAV
T2 sequence (P35372 whole entry): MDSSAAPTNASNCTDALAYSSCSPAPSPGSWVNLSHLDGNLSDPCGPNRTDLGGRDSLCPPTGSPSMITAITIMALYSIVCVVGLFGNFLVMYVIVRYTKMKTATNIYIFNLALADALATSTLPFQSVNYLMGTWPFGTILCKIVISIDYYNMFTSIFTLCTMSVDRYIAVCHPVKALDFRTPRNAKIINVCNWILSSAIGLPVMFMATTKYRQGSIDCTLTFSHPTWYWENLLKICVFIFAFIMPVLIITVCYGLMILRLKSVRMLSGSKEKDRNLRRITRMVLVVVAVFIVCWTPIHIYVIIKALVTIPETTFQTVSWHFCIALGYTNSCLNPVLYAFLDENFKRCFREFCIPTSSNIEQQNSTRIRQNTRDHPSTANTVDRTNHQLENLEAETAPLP

Structure (SMILES) | inhibition at 10 µM [1] [%] | inhibition at 1 µM [2] [%]
CN(C)C(c1cccc(F)c1)C1CCC(NC(=O)COCCN(C)S(=O)(=O)c2ccc(Cl)cc2)CC1 (centres unmarked) [Example 196, 2-(2-(4-chloro-N-methylphenylsulfonamido)ethoxy)-N-(4-((dimethylamino)(3-fluorophenyl)methyl)cyclohexyl)acetamide] | 92 | 81
COc1cc(C)c(S(=O)(=O)N2CCN(CCOCC(=O)NCCC3CCC(C(c4cccc(F)c4)N(C)C)CC3)CC2)c(C)c1C (centres unmarked) [Example 200, N-(2-(4-((dimethylamino)(3-fluorophenyl)methyl)cyclohexyl)ethyl)-2-(2-(4-(4-methoxy-2,3,6-trimethylphenylsulfonyl)piperazin-1-yl)ethoxy)acetamide] | 95 | 80
CN(C)C(c1cccc(F)c1)C1CCC(CCNC(=O)COCCN(C)S(=O)(=O)c2cccc(C(F)(F)F)c2)CC1 (centres unmarked) [Example 192, N-(2-(4-((dimethylamino)(3-fluorophenyl)methyl)cyclohexyl)ethyl)-2-(2-(N-methyl-3-(trifluoromethyl)phenylsulfonamido)ethoxy)acetamide] | 94 | 88
COc1ccc(S(=O)(=O)N(C)CCOCC(=O)NCC2CCC(C(c3ccccc3)N(C)C)CC2)cc1OC (centres unmarked) [Example 169, 2-(2-(3,4-dimethoxy-N-methylphenylsulfonamido)ethoxy)-N-((4-((dimethylamino)(phenyl)methyl)cyclohexyl)methyl)acetamide] | 94 | 85
COc1ccc(S(=O)(=O)N2CCCCC2COCC(=O)NCC2CCC(C(c3ccccc3)N(C)C)CC2)cc1OC (centres unmarked) [Example 150, 2-((1-(3,4-Dimethoxyphenylsulfonyl)piperidin-2-yl)methoxy)-N-((4-((dimethylamino)(phenyl)methyl)cyclohexyl)methyl)acetamide] | 94 | 86
CN(C)C(c1cccs1)C1CCC(NC(=O)COC2CCN(S(=O)(=O)c3cccc(C(F)(F)F)c3)C2)CC1 (centres unmarked) [Example 11, N-(4-((dimethylamino)(thiophen-2-yl)methyl)cyclohexyl)-2-(1-(3-(trifluoromethyl)phenylsulfonyl)pyrrolidin-3-yloxy)acetamide] | 86 | 98
CN(C)C(c1cccc(F)c1)C1CCC(NC(=O)COCCN(C)S(=O)(=O)c2c(Cl)cccc2Cl)CC1 (centres unmarked) [Example 171, 2-(2-(2,6-dichloro-N-methylphenylsulfonamido)ethoxy)-N-(4-((dimethylamino)(3-fluorophenyl)methyl)cyclohexyl)acetamide] | 78 | 84
COc1ccc(S(=O)(=O)N2CCCC2COCC(=O)NC2CCC(C(c3ccccc3)N(C)C)CC2)cc1 (centres unmarked) [Example 182, N-(4-((dimethylamino)(phenyl)methyl)cyclohexyl)-2-((1-(4-methoxyphenylsulfonyl)pyrrolidin-2-yl)methoxy)acetamide] | 85 | 82
CN(C)C(c1cccs1)C1CCC(CCNC(=O)COC2CCN(S(=O)(=O)c3ccc(Cl)cc3Cl)C2)CC1 (centres unmarked) [Example 21, 2-(1-(2,4-dichlorophenylsulfonyl)pyrrolidin-3-yloxy)-N-(2-(4-((dimethylamino)(thiophen-2-yl)methyl)cyclohexyl)ethyl)acetamide] | 94 | 97
COc1cc(C)c(S(=O)(=O)N2CCC(CCOCC(=O)NC3CCC(C(c4ccc(F)cc4)N(C)C)CC3)CC2)c(C)c1C (centres unmarked) [Example 178, N-(4-((dimethylamino)(4-fluorophenyl)methyl)cyclohexyl)-2-(2-(1-(4-methoxy-2,3,6-trimethylphenylsulfonyl)piperidin-4-yl)ethoxy)acetamide] | 94 | 81
COc1cc(C)c(S(=O)(=O)N2CCCC(OCC(=O)NCC3CCC(C(c4ccccc4)N(C)C)CC3)C2)c(C)c1C (centres unmarked) [Example 29, N-((4-((dimethylamino)(phenyl)methyl)cyclohexyl)methyl)-2-(1-(4-methoxy-2,3,6-trimethylphenylsulfonyl)piperidin-3-yloxy)acetamide] | 93 | 97
CN(C)C(c1cccc(F)c1)C1CCC(NC(=O)COC2CCN(S(=O)(=O)c3ccc(F)cc3)C2)CC1 (centres unmarked) [Example 172, N-(4-((dimethylamino)(3-fluorophenyl)methyl)cyclohexyl)-2-(1-(4-fluorophenylsulfonyl)pyrrolidin-3-yloxy)acetamide] | 79 | 78
CN(C)C(c1cccc(F)c1)C1CCC(CCNC(=O)COCCN(C)S(=O)(=O)c2c(Cl)cc(Cl)cc2Cl)CC1 (centres unmarked) [Example 174, N-(2-(4-((dimethylamino)(3-fluorophenyl)methyl)cyclohexyl)ethyl)-2-(2-(2,4,6-trichloro-N-methylphenylsulfonamido)ethoxy)acetamide] | 97 | 90
CN(C)C(c1cccs1)C1CCC(NC(=O)COCCN(C)S(=O)(=O)c2ccc(F)cc2)CC1 (centres unmarked) [Example 10, N-(4-((dimethylamino)(thiophen-2-yl)methyl)cyclohexyl)-2-(2-(4-fluoro-N-methylphenylsulfonamido)ethoxy)acetamide] | 76 | 98
CN(C)C(c1cccc(F)c1)C1CCC(CNC(=O)COCCN(C)S(=O)(=O)c2ccc(Cl)cc2)CC1 (centres unmarked) [Example 158, 2-(2-(4-chloro-N-methylphenylsulfonamido)ethoxy)-N-((4-((dimethylamino)(3-fluorophenyl)methyl)cyclohexyl)methyl)acetamide] | 91 | 87
COc1cc(C)c(S(=O)(=O)N2CCC(CCOCC(=O)NCC3CCC(C(c4ccccc4)N(C)C)CC3)CC2)c(C)c1C (centres unmarked) [Example 146, N-((4-((dimethylamino)(phenyl)methyl)cyclohexyl)methyl)-2-(2-(1-(4-methoxy-2,3,6-trimethylphenylsulfonyl)piperidin-4-yl)ethoxy)acetamide] | 95 | 88
CN(C)C(c1cccc(F)c1)C1CCC(CNC(=O)COC2CCN(S(=O)(=O)c3cccc(C(F)(F)F)c3)C2)CC1 (centres unmarked) [Example 170, N-((4-((dimethylamino)(3-fluorophenyl)methyl)cyclohexyl)methyl)-2-(1-(3-(trifluoromethyl)phenylsulfonyl)pyrrolidin-3-yloxy)acetamide] | 89 | 83
CN(C)C(c1ccccc1)C1CCC(CNC(=O)COCCN(C)S(=O)(=O)c2c(Cl)cc(Cl)cc2Cl)CC1 (centres unmarked) [Example 14, N-((4-((dimethylamino)(phenyl)methyl)cyclohexyl)methyl)-2-(2-(2,4,6-trichloro-N-methylphenylsulfonamido)ethoxy)acetamide] | 99 | 98
COc1ccc(S(=O)(=O)N2CCCCC2COCC(=O)NCCC2CCC(C(c3cccs3)N(C)C)CC2)cc1 (centres unmarked) [Example 30, N-(2-(4-((dimethylamino)(thiophen-2-yl)methyl)cyclohexyl)ethyl)-2-((1-(4-methoxyphenylsulfonyl)piperidin-2-yl)methoxy)acetamide] | 98 | 97
